Assay results: patent US10683559B2, “G-protein coupled receptor (GPCR)-based biosensors and uses thereof” (Georgia Tech Research Corporation, priority 2014, dated 2020)

Tests used:
OR1G1 = molecular target: T1, OR1G1 (Homo sapiens, UniProt P47890); assay: OR1G1-based yeast sensor, GFP fluorescence by flow cytometry; type: cell-based; conditions: for detection by the OR1G1-sensor, acid added independently: 250 μM, each acid alone (FIG. 27); for detection by the OR1G1-sensor in a mixture of fatty acids: mixture of C10, C14 and C16 acids (FIG. 27)
T1 construct: expressed in transfected cells; host or cells: S. cerevisiae W303 Δfar1, Δsst2, Δste2 (PPY140) or additionally Δste12 (PPY161), plasmid pESC-His3-PTEF1-OR1G1 (pKM269 and derivatives)
T1 sequence (P47890 with tags, fused parts or gaps limits assumed): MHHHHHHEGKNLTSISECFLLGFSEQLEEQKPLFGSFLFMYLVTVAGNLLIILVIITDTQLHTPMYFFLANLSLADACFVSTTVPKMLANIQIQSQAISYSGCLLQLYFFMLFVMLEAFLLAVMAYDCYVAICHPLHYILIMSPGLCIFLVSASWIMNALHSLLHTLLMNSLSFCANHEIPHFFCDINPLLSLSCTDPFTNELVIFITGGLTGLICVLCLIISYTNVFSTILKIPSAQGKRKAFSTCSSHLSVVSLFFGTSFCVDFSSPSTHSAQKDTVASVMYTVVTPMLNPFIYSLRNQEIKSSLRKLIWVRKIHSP
Text: (§1) The GPCRs tested were the olfactory receptor OR1G1 (Sanz, G., Schlegel, C., Pernollet, J. C., and Briand, L. (2005) Comparison of odorant specificity of two human olfactory receptors from different phylogenetic classes and evidence for antagonism, Chemical Senses 30, 69-80) and the free fatty acid receptor GPR40 (Itoh, Y., et al. (2003) Free fatty acids regulate insulin secretion from pancreatic beta cells through GPR40, Nature 422, 173-176). First, OR1G1 and GPR40 sensing of even, medium-chain saturated fatty acids (C8-C16) using PFIG1-GFP(m) was tested. A reliable signal after fatty acid addition was not observed (FIGS. 23 and 24). Hypothesizing that the large standard deviation of PFIG1-GFP(m) contributed to the inability to detect medium-chain fatty acids, PFIG1-GFP(s) was tested as the reporter plasmid. Using PFIG1-GFP(s) enabled the OR1G1 based-sensor to detect C8, C10 and C12 fatty acids with 13-, 17-, and 13-fold increases in signal after activation, respectively (FIGS. 8-9). Using PFIG1-GFP(s) also enabled the GPR40 based-sensor to detect C8, C10 and C12 saturated fatty acids, with 14-, 25-, and 16-fold increases in signal after activation, respectively (FIGS. 10-11). It was also explored whether the OR1G1-based sensor signal could be improved by expressing the OR1G1 from a single-copy (s) rather than a multi-copy (m) plasmid.
(§2) To engineer a system in which medium-chain fatty acid sensing would trigger only GFP transcription, Ste12 was replaced in the yeast strain carrying deletions of Ste2, Sst2, and Far1 with one of two synthetic transcription factors (STFs): 1) STF1, which is composed of the Ste12 phosphorylation domain and the Gal4 activation and DNA binding domains (Pi, H. W., Chien, C. T., and Fields, S. (1997) Transcriptional activation upon pheromone stimulation mediated by a small domain of Saccharomyces cerevisiae Ste12p, Mol Cell Biol 17, 6410-6418) and 2) STF2, which is composed of the Ste12 phosphorylation domain, the synthetic B42 activation domain and the bacterial LexA DNA binding domain (Golemis, E. A., and Brent, R. (1992) Fused Protein Domains Inhibit DNA-Binding by Lexa, Mol Cell Biol 12, 3006-3014 and Peralta-Yahya, P., Carter, B. T., Lin, H. N., Tao, H. Y., and Comish, V. W. (2008) High-Throughput Selection for Cellulase Catalysts Using Chemical Complementation, J Am Chem Soc 130, 17446-17452). STF1 can activate transcription of GFP placed under control of a synthetic minimal promoter carrying five Gal4 DNA binding sites (PGal4(5×)). STF2 activates transcription of GFP placed under control of a synthetic minimal promoter carrying four lexA DNA binding sites (PLexA(4×)) (FIGS. 17 and 18).
(§3) For the Ste2/α-factor sensor, strains PPY638, PPY639, PPY640, PPY641 were grown overnight in synthetic complete media with 2% glucose and lacking leucine (SD glu (L^−)). The next day, the cells were used to inoculate a 20 mL of SD glu (L^−) to an OD600=0.06 and incubated for 18 hrs at 30° C. (150 r.p.m.). The cells were centrifuged, re-suspended in 5 mL SD glu (L^−), used to innoculate 5 ml of fresh SD glu (L^−) to OD600=0.6. α-factor (0-100 nM, Zymo Y1001) was added to the medium and incubated for 4 hrs at 30° C. (150 r.p.m.) before reading for cell fluorescence using a flow cytometer. For the OR1G1- and GPR40-based sensors using Ste12/PFIG1-GFP response unit, strains PPY643, PPY644 were grown overnight in SD glu and lacking histidine and leucine (SD glu (HL^−)). The next day, the cells were used to inoculate a 20 mL of SD glu (HL^−) to an OD600=0.06 and incubated for 18 hrs at […] (150 r.p.m.). The cells were centrifuged, re-suspended in 2 ml SD glu (HL^−) to OD600=0.6. C8, C10, C12, C14 and C16 saturated fatty acids (0-800 μM) were added to the medium and incubated for 4 hrs at 30° C. (150 r.p.m.) before reading for cell fluorescence using a flow cytometer. […]

GPR40 = molecular target: T2, GPR40 (Homo sapiens, UniProt O14842); assay: GPR40-based yeast sensor, GFP fluorescence by flow cytometry; type: cell-based
T2 construct: expressed in transfected cells; host or cells: S. cerevisiae W303 Δfar1, Δsst2, Δste2 (PPY140) or additionally Δste12 (PPY161), plasmid pESC-His3-PTEF1-GPR40 (pKM469 and derivatives)
T2 sequence (O14842 whole entry): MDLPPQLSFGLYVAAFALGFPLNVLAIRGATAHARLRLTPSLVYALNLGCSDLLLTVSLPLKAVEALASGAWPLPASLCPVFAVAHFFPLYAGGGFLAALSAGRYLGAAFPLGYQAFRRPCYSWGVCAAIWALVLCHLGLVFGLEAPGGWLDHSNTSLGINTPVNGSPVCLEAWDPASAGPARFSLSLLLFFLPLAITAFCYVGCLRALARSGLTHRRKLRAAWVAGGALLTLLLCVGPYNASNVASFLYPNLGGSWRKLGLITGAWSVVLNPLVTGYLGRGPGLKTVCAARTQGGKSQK
Text: as §1, §2, §3

[1] = C8, C10, C12 fatty aldehydes and alcohols, C10 methyl- and ethyl-esters, dose response
[2] = Ste12/PFIG1-GFP(s), maximum at C8 800 μM, C10 250 μM, C12 500 μM
[3] = W303 Δfar1, Δsst2, Δste2, reporter PFig1-GFP(s), TF Ste12
[4] = Ste12/PFIG1-GFP(s), maximum at C8 800 μM, C10 800 μM, C12 250 μM
[5] = 0 or 500 μM decanoic acid, PFig1-GFP(s), compared with no GPCR
[6] = STF1/PGal4(5×)-GFP response unit, 800 μM decanoic acid
[7] = W303 Δfar1, Δsst2, Δste2, Δste12, 500 μM decanoic acid, PFig1-GFP(s)
[8] = W303 Δfar1, Δsst2, Δste2, Δste12, reporter PGal4(5x)-GFP(m), TF STF1
[9] = W303 Δfar1, Δsst2, Δste2, Δste12, reporter PLexA(4x)-GFP(m), TF STF2

Compound: CCCCCCCCCC=O [C10 aldehyde]
- increase in signal after activation (specificity) (OR1G1; [1]): > 3 fold
- increase in signal after activation (GPR40; at 125 μM): 3 fold

Compound: CCCCCCCC(=O)O [C8 acid]
- increase in signal after activation (OR1G1; [2]): 13 fold
- Dynamic range (OR1G1; [3]): 13
- GFP max (OR1G1; [3]): 239 AU
- Linear range (OR1G1; [3]): 19 to 250 µM
- increase in signal after activation (GPR40; [4]): 14 fold
- Dynamic range (GPR40; [3]): 14
- GFP max (GPR40; [3]): 197 AU
- Linear range (GPR40; [3]): 36 to 250 µM

Compound: CCCCCCCCCCCCCCCC(=O)O [C16 acid]
- detection by the OR1G1-sensor, acid added independently (OR1G1): able to detect
- detection by the OR1G1-sensor in a mixture of fatty acids (OR1G1): not able to detect

Compound: CCCCCCCCCCCCCC(=O)O [C14 acid]
- detection by the OR1G1-sensor, acid added independently (OR1G1): able to detect
- detection by the OR1G1-sensor in a mixture of fatty acids (OR1G1): not able to detect

Compound: CCCCCCCCCC(=O)O [C10 acid, decanoic acid]
- GFP fluorescence in presence of GPCR (OR1G1; [5]): increase in GFP fluorescence
- detection by the OR1G1-sensor, acid added independently (OR1G1): able to detect
- linear range reaching to (OR1G1; STF1/PGal4(5×)-GFP response unit): 500 µM
- improvement in signal after activation over the Ste12/PFIG1-GFP(s) response unit (OR1G1; [6]): ~200%
- increase in signal after activation (OR1G1; [6]): 30 fold
- increase in signal after activation (OR1G1; STF2/PLexA(4×)-GFP response unit, 800 μM decanoic acid): 7 fold
- linear range plateaued at (OR1G1; Ste12/PFIG1-GFP(s) response unit): 250 µM
- increase in signal after activation (OR1G1; [2]): 17 fold
- GFP fluorescence in the absence of Ste12 (OR1G1; [7]): no observable increase in GFP fluorescence
- Dynamic range (OR1G1; [8]): 30
- GFP max (OR1G1; [8]): 1126 AU
- Linear range (OR1G1; [8]): 110 to 500 µM
- Dynamic range (OR1G1; [9]): 7
- GFP max (OR1G1; [9]): 405 AU
- Linear range (OR1G1; [9]): 2 to 100 µM
- Dynamic range (OR1G1; [3]): 17
- GFP max (OR1G1; [3]): 308 AU
- Linear range (OR1G1; [3]): 34 to 250 µM
- increase in signal after activation with chromosomal GPA1 compared with Golf and GPA1-Golf (OR1G1; above 250 μM decanoic acid): greatest increase in signal after activation
- detection by the OR1G1-sensor in a mixture of fatty acids (OR1G1): not able to detect
- detection by the OR1G1-sensor in a mixture of fatty acids (OR1G1; listed as decanoic acid): inability
- GFP fluorescence in presence of GPCR (GPR40; [5]): increase in GFP fluorescence
- increase in signal after activation (GPR40; STF1/PGal4(5×)-GFP response unit, 500 μM decanoic acid): 28 fold
- increase in GFP expression (GPR40; STF2/PLexA(4×) response unit, 500 μM C10 acid (FIG. 22)): 4 fold
- increase in signal after activation (GPR40; [4]): 25 fold
- GFP fluorescence in the absence of Ste12 (GPR40; [7]): no observable increase in GFP fluorescence
- Dynamic range (GPR40; [8]): 28
- GFP max (GPR40; [8]): 573 AU
- Linear range (GPR40; [8]): 47 to 250 µM
- Dynamic range (GPR40; [9]): 4
- GFP max (GPR40; [9]): 501 AU
- Linear range (GPR40; [9]): 4 to 100 µM
- Dynamic range (GPR40; [3]): 25
- GFP max (GPR40; [3]): 339 AU
- Linear range (GPR40; [3]): 36 to 100 µM
- flow cytometry histogram of the biosensor strain (GPR40; incubated with compound vs no compound (FIGS. 30A-30E)): shift of the population

Compound: CCCCCCCC=O [C8 aldehyde]
- increase in signal after activation (specificity) (GPR40; [1]): unable to detect

Compound: CCCCCCCCCCCC(=O)O [C12 acid]
- increase in signal after activation (OR1G1; [2]): 13 fold
- Dynamic range (OR1G1; [3]): 13
- GFP max (OR1G1; [3]): 233 AU
- Linear range (OR1G1; [3]): 1 to 250 µM
- increase in signal after activation (GPR40; [4]): 16 fold
- Dynamic range (GPR40; [3]): 16
- GFP max (GPR40; [3]): 222 AU
- Linear range (GPR40; [3]): 2 to 250 µM

Compound: CCCCCCCCCCCC=O [C12 aldehyde]
- increase in signal after activation (GPR40; at 250 μM): 3 fold
